# Measured values taken from patent publication US11976083B2, “Inhibitors of peptidylarginine deiminases” (Gilead Sciences, Inc., priority 2020, dated 2024).
# Target: T1, human PAD4 (Homo sapiens, UniProt Q9UM07)
# T1 construct: human PAD4 (NM_012387), A2-P663, was PCR amplified; His-SUMO (N, cleaved yes); made in house; host or cells: E. coli BL21(DE3)
# Assay: In vitro PAD4 BAEE biochemical assay
# Settings: BAEE substrate 3 mM, 5 nM PAD4, 2 mM calcium chloride; geometric mean of multiple experiments
# Summary of the method: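 Recombinant human PAD4 (5 nM final) with 2 mM CaCl2 was preincubated with compound 30 min at 25 °C in MOPS buffer pH 7.6, then reacted with 3 mM BAEE for 2 h at 25 °C. After EDTA stop, released ammonia was detected by o-phthalaldehyde/DTT fluorescence (ex 405/em 535 nm); IC50 from four-parameter fit, geometric mean.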
# T1 sequence (Q9UM07 2-663): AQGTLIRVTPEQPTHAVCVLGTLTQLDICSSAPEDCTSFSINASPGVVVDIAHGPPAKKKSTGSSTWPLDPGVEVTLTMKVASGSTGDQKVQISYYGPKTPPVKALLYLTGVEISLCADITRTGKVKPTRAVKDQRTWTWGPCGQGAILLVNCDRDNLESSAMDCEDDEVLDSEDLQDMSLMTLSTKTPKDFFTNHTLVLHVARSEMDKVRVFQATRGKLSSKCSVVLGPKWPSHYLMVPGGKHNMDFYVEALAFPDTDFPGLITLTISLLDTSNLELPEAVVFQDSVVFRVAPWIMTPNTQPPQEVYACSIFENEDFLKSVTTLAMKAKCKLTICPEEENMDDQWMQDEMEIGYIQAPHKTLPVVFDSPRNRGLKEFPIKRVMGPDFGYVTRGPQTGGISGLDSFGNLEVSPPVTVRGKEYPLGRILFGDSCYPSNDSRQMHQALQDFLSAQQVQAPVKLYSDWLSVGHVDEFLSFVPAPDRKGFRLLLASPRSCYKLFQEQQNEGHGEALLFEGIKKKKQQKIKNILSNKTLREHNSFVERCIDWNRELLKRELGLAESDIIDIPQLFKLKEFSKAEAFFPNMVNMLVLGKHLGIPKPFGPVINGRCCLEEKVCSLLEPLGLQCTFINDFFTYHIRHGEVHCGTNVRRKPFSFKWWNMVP
row,Structure (SMILES),IC50
1,"COc1cc(C(=O)N2CCC[C@@H](N)C2)cc2nc(-c3cc4ccc5nc4n3CCCCCCCC(=O)NC5C(F)F)n(C)c12 (some centres unmarked) [Example 238, 17-[5-[(3~{R})-3-aminopiperidine-1-carbonyl]-7-methoxy-1-methyl-benzimidazol-2-yl]-11-(difluoromethyl)-1,10,19-triazatricyclo[10.5.2.0^{15,18}]nonadeca-12(19),13,15(18),16-tetraen-9-one]",87 nM
2,"COc1cc(C(=O)N2[C@H]3CC[C@@H]2[C@H](N)C3)cc2nc(-c3cc4ccc5nc4n3CCCCOCCC(=O)N3CCC[C@H]53)n(C)c12 [Example 132, (2~{R})-16-[5-[(1~{R},2~{R),4~{S})-2-amino-7-azabicyclo[2.2.1]heptane-7-carbonyl]-7-methoxy-1-methyl-benzimidazol-2-yl]-10-oxa-6,15,21-triazatetracyclo[13.5.2.0^{2,6}.0^{18,22}] docosa-1(21),16,18(22),19-tetraen-7-one]",28 nM
3,"COc1cc(C(=O)N2[C@H]3CC[C@@H]2[C@H](N)C3)cc2nc(-c3cc4ccc5nc4n3C/C=C\CCCCCC(=O)N[C@@H]5C)c(C)n12 [Example 120, (12˜{R})-18-[7-[(1˜{R},2˜{R},4˜{S})-2-amino-7-azabicyclo[2.2.1]heptane-7-carbonyl]-5-methoxy-3-methyl-imidazo[1,2-a]pyridin-2-yl]-12-methyl-1,11,20-triazatricyclo[11.5.2.0^{16,19}]icosa-3,13(20),14,16(19),17-pentaen-10-one]",22 nM
4,"COc1cc(C(=O)N2[C@H]3CC[C@@H]2[C@H](N)C3)cc2nc(-c3cc4ccc5cc4n3CCCCCCC(C)(C)C(=O)N[C@@H]5C)n(C)c12 [Example 216, (11˜{R})-17-[5-[(1˜{R},2˜{R},4˜{S})-2-amino-7-azabicyclo[2.2.1]heptane-7-carbonyl]-7-methoxy-1-methyl-benzimidazol-2-yl]-8,8,11-trimethyl-1,10-diazatricyclo[10.5.2.0^{15,18}]nonadeca-12(19),13,15(18),16-tetraen-9-one]",33 nM
5,"COc1cc(C(=O)N2CCC[C@@H](N)C2)cc2nc(-c3cc4ccc5nc4n3CC[C@H]3C[C@H]3COCCC(=O)N[C@@H]5C)n(C)c12 [Example 306, (4~{R},6~{R},13~{R})-19-[5-[(3~{R})-3-aminopiperidine-1-carbonyl]-7-methoxy-1-methyl-benzimidazol-2-yl]-13-methyl-8-oxa-1,12,21-triazatetracyclo[12.5.2.0^{4,6}.0^{17,20}] henicosa-14(21),15,17(20),18-tetraen-11-one]",85 nM
6,"C[C@H]1NC(=O)CCCCCCCn2c(-c3nc4cc(C(=O)N5[C@H]6CC[C@@H]5[C@H](N)C6)ccn4c3C3CC3)cc3ccc1nc32 [Example 249, (11~{R})-17-[7-[(1~{R},2~{R},4~{S})-2-amino-7-azabicyclo[2.2.1]heptane-7-carbonyl]-3-cyclopropyl-imidazo[1,2-a]pyridin-2-yl]-11-methyl-1,10,19-triazatricyclo[10.5.2.0^{15,18}]nonadeca-12(19),13,15(18),16-tetraen-9-one]",51 nM
7,"COc1cc(C(=O)N2CCC[C@@H](N)C2)cc2nc(-c3cc4ccc5cc4n3CCCCC[C@@H]3C[C@H]3C(=O)N[C@@H]5C)n(C)c12 [Example 165, (2~{R},5~{R},7~{R})-14-[5-[(3~{R})-3-aminopiperidine-1-carbonyl]-7-methoxy-1-methyl-benzimidazol-2-yl]-2-methyl-3,13-diazatetracyclo[11.5.2.0^{5,7}.0^{16,20}] icosa-1(19),14,16(20),17-tetraen-4-one]",235 nM
8,"COc1cc(C(=O)N[C@H]2CNCC[C@@H]2F)cc2nc(-c3cc4ccc5nc4n3CCCCCc3ccccc3C(=O)N[C@@H]5C)n(C)c12 [Example 31, ~{N}-[(3~{S},4~{S})-4-fluoro-3-piperidyl]-7-methoxy-1-methyl-2-[(2~{R})-2-methyl-4-oxo-3,16,22-triazatetracyclo[14.5.2.0^{5,10}.0^{19,23}]tricosa-1(22),5,7,9,17,19(23),20-heptaen-17-yl]benzimidazole-5-carboxamide]",81 nM
9,"COc1cc(C(=O)N2[C@H]3CC[C@@H]2[C@H](N)C3)cc2nc(-c3cc4ccc5nc4n3CCCCC[C@@H]3C[C@H]3C(=O)N[C@@H]5C)n(C)c12 (single isomer, unassigned) [Example 223, (2˜{R},5˜{R},7˜{R})-14-[5-[(1˜{R},2˜{R},4˜{S})-2-amino-7-azabicyclo[2.2.1]heptane-7-carbonyl]-7-methoxy-1-methyl-benzimidazol-2-yl]-2-methyl-3,13,19-triazatetracyclo[11.5.2.0^{5,7}.0^{16,20}]icosa-1(19),14,16(20),17-tetraen-4-one]",28 nM

# Next, values leading:
row,IC50,Structure (SMILES)
1,59 nM,"C[C@H]1NC(=O)c2cc3ccccc3nc2CCCCCn2c(-c3nc4cc(C(=O)N5C[C@H](N)[C@@H]6CC[C@H]5C6)c(F)c(F)c4n3C3CC3)cc3ccc1nc32 [Example 754, (2~{R})-21-[5-[(1~{S},4~ {R},5~{R})-4-amino-2-azabicyclo[3.2.1]octane-2-carbonyl]-1-cyclopropyl-6,7-difluoro-benzimidazol-2-yl]-2-methyl-3,13,20,26-tetrazapentacyclo[18.5.2.0^ {5,14}.0^{7,12}.0^{23,27}] heptacosa-1(26),5(14),6,8, 10,12,21,23(27),24-nonaen-4-one]"
2,9 nM,"C[C@H]1NC(=O)[C@@H]2C[C@H]2CC(F)(F)CCCn2c(-c3nc4cc(C(=O)N[C@H]5CNCC[C@@H]5F)c(F)cc4n3C)cc3ccc1nc32 [Example 625, 2-[(2~{R},5~{R},7~{S})-9,9-difluoro-2-methyl-4-oxo-3,13,19-triazatetracyclo[11.5.2.0^ {5,7}.0^{16,20}]icosa-1(19),14,16(20),17-tetraen-14-yl]-6-fluoro-~ {N}-[(3~{S},4~{S})-4-fluoro-3-piperidyl]-1-methyl-benzimidazole-5-carboxamide]"
3,115 nM,"COc1cc(C(=O)N2CC[C@@H](OC)[C@@H](N)C2)cc2nc(-c3cc4ccc5nc4n3CC(F)(F)CCCCC(C)(C)C(=O)N[C@@H]5C)n(C)c12 [Example 608, (11~{R})-17-[5-[(3~{S}, 4~{R})-3-amino-4-methoxy-piperidine-1-carbonyl]-7-methoxy-1-methyl-benzimidazol-2-yl]-3,3-difluoro-8,8,11-trimethyl-1,10,19-triazatricyclo[10.5.2.0^ {15,18}]nonadeca-12,14,16,18-tetraen-9-one]"
4,42 nM,"COc1cc(C(=O)N2[C@H]3CC[C@@H]2[C@H](N)C3)cc2nc(-c3cc4ccc5nc4n3CCCCCc3nccnc3C(=O)N[C@@H]5C)n(C)c12 [Example 598, (2~{R})-17-[5-[(1~{R}, 2~{R},4~{S})-2-amino-7-azabicyclo[2.2.1]heptane-7-carbonyl]-7-methoxy-1-methyl-benzimidazol-2-yl]-2-methyl-3,6,9,16,22-pentazatetracyclo[14.5.2.0^ {5,10}.0^{19,23}] tricosa-1(21),5(10),6,8,17, 19,22-heptaen-4-one]"
5,17 nM,"COc1cc(C(=O)N2C[C@H]3CC[C@@H]2[C@@H]3N)cc2nc(-c3cc4ccc5cc4n3CCCCCCC(C)(C)C(=O)N[C@@H]5C)n(C)c12 [Example 749, (11~{R})-17-[5-[(1~{R},4~ {R},7~{R})-7-amino-2-azabicyclo[2.2.1]heptane-2-carbonyl]-7-methoxy-1-methyl-benzimidazol-2-yl]-8,8,11-trimethyl-1,10-diazatricyclo[10.5.2.0^{15,18}] nonadeca-12(19), 13,15(18),16-tetraen-9-one]"
